In patent US20080171710A1, “The Redox/Fyn/c-Cbl Pathway” (priority 2007, published 2008):

Legend:
O-2A/OPCs [1] = experiment: In vitro BrdU incorporation assay; format: cell-based, rat
Method: Cell proliferation was assessed by bromodeoxyuridine (BrdU) incorporation and by using the mouse anti-BrdU mAb IgGl (1:100; Sigma) to label dividing cells. Stained cells on cover slips were rinsed two times in 1×PBS, counterstained with 4′6-diamidino-2-phenylindole (DAPI; Molecular Probes, Eugene, Oreg., United States) and mounted on glass slides with Fluoromount (Molecular Probes). Staining against surface proteins was performed on cultures of living cells or on cells fixed with 2% paraformaldehyde. Staining with intracellular antibodies was performed by permeabilizing cells with ice-cold methanol for 4 min or by using 0.5% Triton for 15 mm on 2% parafomaldhyde-fixed cells. Antibody binding was detected with appropriate fluorescent dye-conjugated secondary antibodies at 10 μg/ml (Southern Biotech, Birmingham, Ala., United States) or Alexa Fluor-coupled antibodies at a concentration of 1 μg/ml (Molecular Probes), applied for 20 min. Anti-BrdU monoclonal antibody was obtained from Sigma.

Rho kinase = Rho kinase (Rattus norvegicus, UniProt Q63644); conditions: concentration of Y27632 used in O-2A/OPCs
Sequence of Rho kinase (Q63644 whole entry): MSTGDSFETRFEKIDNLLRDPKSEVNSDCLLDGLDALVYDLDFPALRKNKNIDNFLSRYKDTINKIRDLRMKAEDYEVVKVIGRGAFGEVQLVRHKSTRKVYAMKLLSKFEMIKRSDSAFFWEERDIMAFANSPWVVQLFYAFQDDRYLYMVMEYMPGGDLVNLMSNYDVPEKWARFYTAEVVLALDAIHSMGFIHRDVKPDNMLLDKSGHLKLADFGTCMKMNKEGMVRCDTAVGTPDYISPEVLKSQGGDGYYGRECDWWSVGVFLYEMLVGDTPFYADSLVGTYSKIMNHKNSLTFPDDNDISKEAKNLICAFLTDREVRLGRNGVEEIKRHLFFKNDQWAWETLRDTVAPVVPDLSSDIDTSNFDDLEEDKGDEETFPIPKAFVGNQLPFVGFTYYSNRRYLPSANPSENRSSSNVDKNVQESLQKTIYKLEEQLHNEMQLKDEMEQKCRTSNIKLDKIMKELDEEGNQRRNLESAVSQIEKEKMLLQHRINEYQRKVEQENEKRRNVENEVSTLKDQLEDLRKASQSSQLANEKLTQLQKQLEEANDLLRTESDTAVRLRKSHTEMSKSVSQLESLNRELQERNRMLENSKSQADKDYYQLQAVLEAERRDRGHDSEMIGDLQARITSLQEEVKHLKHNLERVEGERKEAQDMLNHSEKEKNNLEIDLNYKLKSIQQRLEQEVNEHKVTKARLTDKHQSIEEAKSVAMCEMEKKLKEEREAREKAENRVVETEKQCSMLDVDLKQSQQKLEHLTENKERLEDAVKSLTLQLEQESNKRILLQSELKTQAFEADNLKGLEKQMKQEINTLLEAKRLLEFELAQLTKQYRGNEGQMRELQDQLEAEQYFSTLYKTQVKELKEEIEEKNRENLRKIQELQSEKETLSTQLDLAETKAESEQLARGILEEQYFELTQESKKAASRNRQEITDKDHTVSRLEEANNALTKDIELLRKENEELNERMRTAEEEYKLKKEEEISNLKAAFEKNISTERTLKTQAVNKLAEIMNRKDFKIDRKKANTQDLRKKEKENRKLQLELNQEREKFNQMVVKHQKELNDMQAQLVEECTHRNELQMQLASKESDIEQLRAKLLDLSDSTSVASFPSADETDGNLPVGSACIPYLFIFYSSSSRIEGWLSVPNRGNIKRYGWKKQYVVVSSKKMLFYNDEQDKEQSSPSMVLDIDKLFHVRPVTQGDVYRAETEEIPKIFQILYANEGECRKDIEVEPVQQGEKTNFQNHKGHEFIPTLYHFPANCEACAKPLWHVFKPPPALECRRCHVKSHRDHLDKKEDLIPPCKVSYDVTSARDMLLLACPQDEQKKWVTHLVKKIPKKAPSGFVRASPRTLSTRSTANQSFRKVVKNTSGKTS
Method: Rho kinase activity was quantified using the CycLex Rho-Kinase Assay kit (MBL international, Woburn, Mass., United States) as described. Cells were lysed and about 500 μg of total cell Jysates were immunoprecipitated with anti-ROCK1 antibody (Sigma), and the precipitates were re-suspended with kinase reaction buffer provided in the kit. Rho kinase activities of each sample were assayed using the kit according to the manufacturer's instructions.

PDGFRα [2] = experiment: PDGFR ubiquitylation (immunoprecipitation assay); format: cell-based, rat; conditions: co-exposure with MeHg
Method: (§1) For the co-immunoprecipitation assay, anti-c-Cbl monoclonal antibody (BD PharMingen) or anti-PDGFRα polyclonal antibody (Santa Cruz Biotechnology) was added to the pre-cleared cell lysates (250 μg of total protein), and the mixtures were gently rocked for 2 h at 4° C. A total of 30 μl of protein A/G agarose was then added to the mixture followed by rotating at 4° C. overnight. The protein A/G agarose was then spun down and washed thoroughly three times. The precipitates were resolved on an 8% SDS-PAGE gel and then were subjected to Western blot analysis using an anti-p-Tyr (for c-Cbl phosphorylation assay) or ubiquitin (for PDGFR ubiquitylation assay) antibody (Santa Cruz Biotechnology).

PDGFRα [3] = format: cell-based, rat; conditions: for effect on MeHg-induced reductions in levels of PDGFRα: together with MeHg; for effect on Pb- and paraquat-induced reductions in levels of PDGFRα: together with Pb (1 μM) or paraquat (5 μM)
Fyn [4] = target: T1, Fyn (Rattus norvegicus, UniProt Q62844); format: cell-based
T1 construct: 250 μg of total cell lysates were immunoprecipitated with anti-Fyn antibody; endogenous in cells; host or cells: primary rat O-2A/OPCs
T1 sequence (Q62844 whole entry): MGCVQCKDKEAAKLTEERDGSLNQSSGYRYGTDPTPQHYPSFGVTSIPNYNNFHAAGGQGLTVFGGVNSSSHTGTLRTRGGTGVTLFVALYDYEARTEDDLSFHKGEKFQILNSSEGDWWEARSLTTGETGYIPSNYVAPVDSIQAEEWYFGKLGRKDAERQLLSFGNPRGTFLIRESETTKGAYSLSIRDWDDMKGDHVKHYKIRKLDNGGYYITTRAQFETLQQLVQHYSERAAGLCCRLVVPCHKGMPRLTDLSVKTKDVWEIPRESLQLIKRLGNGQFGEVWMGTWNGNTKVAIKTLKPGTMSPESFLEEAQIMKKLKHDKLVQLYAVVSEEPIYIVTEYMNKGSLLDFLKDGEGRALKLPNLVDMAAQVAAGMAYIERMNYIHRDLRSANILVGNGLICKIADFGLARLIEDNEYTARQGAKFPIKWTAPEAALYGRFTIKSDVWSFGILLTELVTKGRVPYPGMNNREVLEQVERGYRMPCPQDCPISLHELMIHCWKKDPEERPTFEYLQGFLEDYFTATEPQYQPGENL
Method: Fyn kinase activity was quantified using the Universal Tyrosine Kinase Assay Kit (Takara, Madison, Wis., United States). O-2A/OPCs exposed to different treatments were solubilized with an equal volume of the extraction buffer provided with the kit for 15 min, and the resulting lysates were centrifuged at 13,000×g for 15 min at 4° C.; 250 μg of total cell lysates were immunoprecipitated with anti-Fyn antibody (Santa Cruz Biotechnology). Following immunoprecipitation, Fyn immune complexes were washed four times with extraction buffer, and then Fyn kinase activities of each sample were assayed using the kit according to the manufacturer's instructions.

MDA-MB-231 cell = MDA-MB-231 cell division by BrdU incorporation; format: cell-based; conditions: NAC 1 mM or PP1 200 nM with 20 μM tamoxifen, 48 hours
Method: It has been reported that c-Cbl induced down-regulation of EGFR is disabled in cancer cells (Hirsch DS, Shen. Y, Wu WJ, (2006) Cancer Res. Apr 1;66(7):3523-30). Thus, growth and motility inhibition of breast cancer cells by EGFR degradation is correlated with inaetivation of Cdc42. […] Cells were cultured in phenol red-free growth media and exposed to TMX (0, 1 μM, 10 μM, 20 μM and 50 μM) for 48 hours, with or without 1 mM NAC. In FIG. 22C. MDA-MB-231 cell division was analyzed by BrdU incorporation analysis. […] Percentage of Brdu+ cells from DAPI+ cells was determined in each sample.

cancer cells = experiment: Cancer cell viability (MTT assays), FIG. 22; format: cell-based; conditions: TMX 1-50 μM, 48 hours
O-2A/OPCs [5] = experiment: Clonal analysis of division and differentiation; format: cell-based, rat; conditions: co-exposure with MeHg; 1 mM NAC or PP1
Method: O-2A/OPCs purified from P7 rat optic nerve were plated in. poly-L-lysine-coated 25-cm^2 flasks at clonal density with DMBM medium in the presence of 10-ng/ml PDGF as previously described. After 24-h recovery, cells were treated with different toxicants, each for 3 d, until visual inspection and immunostaining was performed. NAC was added 1 h before exposure to other toxicants for NAC pretreatment, and NAC co-exists throughout the culture period. The numbers of O-2A/OPCs and oligodendrocytes in each clone were determined by counting under fluorescent microscope. […] Experiments were performed in triplicate in at least two independent experiments.

PDGFRα [6] = experiment: PDGFRα phosphorylation (Western blot, anti-PDGFRα(pY742)); format: cell-based, rat; conditions: co-exposure with MeHg
Text: The cells were then collected and lysed for Western blotting. […] Cells were lysed for Western blot analysis using anti-PDGFRα(pY742) antibody. The membranes were de-probed and then re-probed with antibody against total PDGFRα and anti-β-tubulin antibody. […]
(§2) Anti-phosphorylated Erk monoclonal, anti-Erk monoclonal, anti-TrkC polyclonal anti-Fyn polyclonal, anti-EGFR polyclonal, anti-c-Met polyclonal, anti-phospho-tyrosine monoclonal, and anti-PDGFRα polyclonal antibodies were obtained from Santa Cruz Biotechnology (Santa Cruz, Calif., United States). Anti-c-Cbl monoclonal antibody was obtained from BD PharMingen (San Diego, Calif., United States). Anti-phosphorylated Akt monoclonal and anti-Akt polyclonal antibodies were obtained from Cell Signaling Technology (Beverly, Mass., United States). Anti-phosphorylated PDGPRα polyclonal antibody was obtained from Biosource (Carlsbad, Calif., United States). The cell culture samples were collected and lysed in RAPI buffer, whereas dissected tissue samples were sonicated in RAPI buffer. Samples were resolved on SDS-PAGE gels and transferred to PVDF membranes (PerkinElmer Life Science. Wellesley, Mass., United States), After being blocked in 5% skim milk in PBS containing 0.1% Tween 20, membranes were incubated with a primary antibody, followed by incubation with an HRP-conjugated secondary antibody (Santa Cruz Biotechnology). Membranes were visualized using Western Blotting Luminol Reagent (Santa Cruz Biotechnology). All analyses of signaling pathway components were conducted in the presence of ligand for the receptor pathway under analysis (either PDGF-AA for PDGFRα, NT-3 or TrkC, HGF for c-Met, or EGF for EGFR).

c-Cbl [7] = format: cell-based, rat
Method: as §1

Erk1/2 = format: cell-based, rat
Method: (§3) Cells were deprived of PDGF-AA for 5 h before re-exposure to PDGF-AA (10 ng/ml) for 1 h for Western blot or 6 h for luciferase assays of pathway activation. Transient transfection was performed using Fugene6 (Roche, Basel, Switzerland ) transfection solution according to the manufacturer's protocol. For the luciferase assay, cells seeded in 12-well plates were transfected with a reporter plasmid SRE-Luc(firefly) or NF-κB-Luc(firefly) (BD-Clontech, Palo Alto, Calif., United States) and an internal control plasmid pRLSV40-LUC. Analyses of luciferase activity were performed according to the protocol of the Dual Luciferase Assay System (Promega, Madison, Wis., United States), which uses an internal control of Renilla luciferase for quantification, and relative light units were measured using a luminometer.
as §2

O-2A/OPCs [8] = experiment: MTT+ cells in EtOH-exposed O-2A/OPCs; format: cell-based, rat; conditions: cells infected with empty virus; 0.5% EtOH, 72 hrs
Method: Twenty-four hr after transfection, medium was changed into DMEM/F12(SATO-) supplemented with 10 ng/ml PDGF-AA. Virus supernatant was collected forty-eight hr post-transfection, filtered through 0.45 um filter to remove non-adherent cells and cellular debris, frozen in small aliquots on dry ice, and stored at −80° C. Twenty-four hr prior to infection with either DN-c-Cbl virus or backbone virus, O-2A cells were seeded. The following day, the culture media was aspirated and replaced with virus supernatant diluted 1:1 in the O-2A growth media. Media was then changed into O-2. A growth media after eight hr or overnight. Twenty-four hr after infection, the cells were collected by trypsinization and reseeded in the selective media (growth media+200 ng/ml puromycin). By the next day, all non-infected cells were floating and presumably dead or dying. The infected cells were allowed to proliferate for two days, and then collected and re-seeded for these experiments.

Fyn [9] = format: cell-based, rat; conditions: EtOH exposure 30 min
EGFR = format: cell-based, rat
Text: as §2

TrkC = format: cell-based, rat
Text: as §2

c-Met = format: cell-based, rat
Text: as §2

Akt = format: cell-based, rat
Method: as §3, §2

c-Cbl [10] = experiment: c-Cbl protein level after RNAi (Western blot); format: cell-based, rat; conditions: expression of RNAi construct
Text: (§4) Anti-phosphorylated Erk monoclonal, anti-Erk monoclonal, anti-TrkC polyclonal anti-Fyn polyclonal, anti-EGFR polyclonal, anti-c-Met polyclonal, anti-phospho-tyrosine monoclonal, and anti-PDGFRα polyclonal antibodies were obtained from Santa Cruz Biotechnology (Santa Cruz, Calif., United States). Anti-c-Cbl monoclonal antibody was obtained from BD PharMingen (San Diego, Calif., United States). Anti-phosphorylated Akt monoclonal and anti-Akt polyclonal antibodies were obtained from Cell Signaling Technology (Beverly, Mass., United States). Anti-phosphorylated PDGPRα polyclonal antibody was obtained from Biosource (Carlsbad, Calif., United States). The cell culture samples were collected and lysed in RAPI buffer, whereas dissected tissue samples were sonicated in RAPI buffer. […]
(§5) siRNA target sites were selected by scanning the cDNA sequence for AA dinucleotides via siRNA target finder (Ambion, Austin, Tex., United States). Those 19-nucleotide segments that start with G immediately downstream of AA were recorded and then analyzed by BLAST search to eliminate any sequences with significant similarity to other genes. […]

Fyn [11] = experiment: Fyn protein level after RNAi (Western blot); format: cell-based, rat; conditions: expression of RNAi construct
Text: as §4, §5

[12] = NAC 1 mM, PP1 100 nM or ICI 182,780 200 nM with TMX

C[C@@H](N)[C@H]1CC[C@H](C(=O)Nc2ccncc2)CC1 [Y27632]
effect on MeHg-associated suppression of BrdU incorporation / cell division (O-2A/OPCs [1]; together with MeHg): did not alter | Rho kinase activity (Rho kinase): successfully inhibited

Cc1ccc(-c2nn(C(C)(C)C)c3ncnc(N)c23)cc1 [PP1]
levels of ubiquitylated PDGFRα in MeHg-treated cells (PDGFRα [2]): marked reduction | effect on TMX effect on cell proliferation (O-2A/OPCs [1]; with TMX, 2 days): blocked | effect on TMX-induced reductions in levels of PDGFRα (PDGFRα [3]; [12]): blocked | effect on Aβ-induced reduction in PDGFRα levels (PDGFRα [3]; co-exposure with Aβ): blocked | effect on MeHg-induced reductions in levels of PDGFRα (PDGFRα [3]): blocked | effect on Pb- and paraquat-induced reductions in levels of PDGFRα (PDGFRα [3]): prevented | effect on TMX-induced activation of Fyn (Fyn [4]; [12]): blocked | effect on MeHg-induced Fyn activation (Fyn [4]; added 1 h before MeHg): blocked | effect on Pb- and paraquat-induced Fyn activation (Fyn [4]; added 1 h before Pb or paraquat): prevented | rescue from tamoxifen effect on cell division (MDA-MB-231 cell): did not result in any rescue effect | effect on TMX effects on cancer cells (cancer cells): not blocked | effect on MeHg-induced suppression of cell division at the clonal level (O-2A/OPCs [5]): blocked | effect on MeHg-induced suppression of PDGFRα phosphorylation (PDGFRα [6]): protected | effect on TMX-induced activation of c-Cbl (c-Cbl [7]; [12]): blocked | effect on MeHg-induced c-Cbl phosphorylation (c-Cbl [7]; added 1 h before MeHg): blocked | effect on Aβ-induced increase in phosphorylated c-Cbl (c-Cbl [7]; co-exposure with Aβ): blocked | effect on Aβ(1-42) suppression of PDGF-mediated Erk1/2 phosphorylation (Erk1/2; co-exposure with Aβ(1-42)): blocked | effect on MeHg-associated suppression of Erk1/2 phosphorylation (Erk1/2; co-treatment with MeHg): blocked

CCO [EtOH, ethanol]
decrease in the proportion of cells that were MTT+ (O-2A/OPCs [8]): ~25% | Fyn phosphorylation (Fyn [9]): caused Fyn phosphorylation | levels of PDGFRα (PDGFRα [3]): decreased levels | levels of EGFR (EGFR): decreased levels | levels of TrkC (TrkC): unaltered | levels of c-Met (c-Met): decreased levels | c-Cbl phosphorylation (c-Cbl [7]): caused c-Cbl phosphorylation | PDGF-induced phosphorylation of Akt (Akt): suppression | PDGF-induced phosphorylation of Erk1/2 (Erk1/2): suppression

B1: Fyn-RNAi: Fyn-specific siRNA construct, SEQ ID NO: 1 and 2 (nucleic acid)
chain 1: GTTTGCTCGACTTCTTAAATTCAAGAGATTTAAGAAGTCGAGCAAACTTTTTT
chain 2: AATTAAAAAAGTTTGCTCGACTTCTTAAATCTCTTGAATTTAAGAAGTCGAGCAAACGGCC
modifications: expressed or natural sequence
effect on MeHg-induced reductions in levels of PDGFRα (PDGFRα [3]): protected | effect on Pb- and paraquat-induced reductions in levels of PDGFRα (PDGFRα [3]): prevented | levels of c-Cbl protein (c-Cbl [10]): had no effects | levels of Fyn protein (Fyn [11]): caused a reduction
